From US8426429B2, “2-amino-quinazoline derivatives useful as inhibitors of β-secretase (BACE)” (Jansssen Pharmaceutica N.V., priority 2004, dated 2013) come the findings set out here.

For the assay, the target named is T1, β-secretase (BACE) (Homo sapiens, UniProt P56817).
T1 construct: purchased Panvera
Nature of the assay: BACE FS1 % Inhibition Assay. Type of assay: biochemical. In short, it runs like this:
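Percent inhibition per compound concentration was referenced to vehicle-treated enzyme and no-enzyme wells. Enzyme at a 4 μg/mL working stock plus compound was mixed for 20 min at room temperature before the FS1 substrate (300 μg/mL working stock) was added for a 1 h room-temperature reaction.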

“And” between values parts separate entries of the source, which are not always exact repeats. Identical values can stand only once.

T1 sequence (P56817 46-501): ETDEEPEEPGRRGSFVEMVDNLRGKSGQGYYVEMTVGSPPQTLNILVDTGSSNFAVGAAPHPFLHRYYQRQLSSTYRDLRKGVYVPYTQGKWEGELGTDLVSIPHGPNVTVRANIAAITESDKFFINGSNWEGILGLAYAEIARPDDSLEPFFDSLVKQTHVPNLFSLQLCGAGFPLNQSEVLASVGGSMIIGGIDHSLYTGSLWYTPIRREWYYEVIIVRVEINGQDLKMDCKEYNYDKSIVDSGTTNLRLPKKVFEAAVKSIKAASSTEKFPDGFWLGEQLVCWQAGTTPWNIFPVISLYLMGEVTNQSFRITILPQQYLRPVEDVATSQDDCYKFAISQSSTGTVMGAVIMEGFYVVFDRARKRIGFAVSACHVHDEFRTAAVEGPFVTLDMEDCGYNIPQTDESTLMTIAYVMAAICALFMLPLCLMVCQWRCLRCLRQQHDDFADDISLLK

Consider `CN(C(=O)c1cccc(CN2Cc3cc(Oc4ccccc4C(=O)N4CCCC4)ccc3N=C2N)c1)C1CCCCC1` [Compound 483], for which the “% Inhibition (FS)” value runs as follows: (0.3 μM test compound) less than 30%; (1 μM test compound) less than 30%; (3 μM test compound) less than 30%.

On to `C[C@@H](CNC(=O)C1CCCCC1)N1Cc2cc(Oc3ccccc3)ccc2N=C1N` [Compound 486], for which the “% Inhibition (FS)” value is, setting by setting: (0.3 μM test compound) less than 30%; (1 μM test compound) less than 30%; (3 μM test compound) less than 30%.

Turning to `COc1ccccc1-c1ccc2c(c1)CN(CCNC(=O)C1(C(N)=O)CC1)C(N)=N2` [Compound 488], the “% Inhibition (FS)” value is on record as less than 30% (0.3 μM test compound), less than 30% (1 μM test compound) and less than 30% (3 μM test compound).

Regarding `COc1ccccc1-c1ccc2c(c1)CN(CCNC(=O)CN)C(N)=N2` [Compound 490], the “% Inhibition (FS)” value by setting is: (0.3 μM test compound) less than 30%; (1 μM test compound) less than 30%; (3 μM test compound) less than 30%.

Take `COc1ccccc1-c1ccc2c(c1)CN(CCNC(=O)C1CCN(C(C)=O)CC1)C(N)=N2` [Compound 491]: the “% Inhibition (FS)” value by setting is: (0.3 μM test compound) less than 30%; (1 μM test compound) less than 30%; (3 μM test compound, 3 µM) 44% and <30%.

In the case of `COc1ccccc1-c1ccc2c(c1)CN(CCNC(=O)CCN)C(N)=N2` [Compound 493], the “% Inhibition (FS)” value runs as follows: (0.3 μM test compound) less than 30%; (1 μM test compound) less than 30%; (3 μM test compound) 49%.

Take `COc1ccccc1-c1ccc2c(c1)CN(CCNC(=O)CCCN)C(N)=N2` [Compound 494]: the “% Inhibition (FS)” value is on record as less than 30% (0.3 μM test compound), less than 30% (1 μM test compound) and less than 30% (3 μM test compound).

For `CN(C(=O)c1ccc(CN2Cc3cc(Oc4ccccc4)ccc3N=C2N)s1)C1CCCCC1` [Compound 503], the “% Inhibition (FS)” value is less than 30% (0.3 μM test compound), less than 30% (1 μM test compound) and 90% (3 μM test compound).

Regarding `CC1CCCCN1C(=O)CCCC(CCC(=O)N1CCCCC1C)N1Cc2cc(Oc3ccccc3)ccc2N=C1N` (stereo not drawn) [Compound 504], the “% Inhibition (FS)” value by setting is: (0.3 μM test compound) less than 30%; (1 μM test compound) 31%; (3 μM test compound) 96%.

As to `CC(C)(C)OC(=O)N1CCC(CN2Cc3cc(Oc4ccccc4)ccc3N=C2N)CC1` [Compound 509], the “% Inhibition (FS)” value reads like this: (0.3 μM test compound) less than 30%; (1 μM test compound) less than 30%; (3 μM test compound) 41%.

As for `CC(C)(C)OC(=O)N1CCCCC(N2Cc3cc(Oc4ccccc4)ccc3N=C2N)C1` (stereo not drawn) [Compound 510], the “% Inhibition (FS)” value by setting is: (0.3 μM test compound) less than 30%; (1 μM test compound) less than 30%; (3 μM test compound) 37%.

Consider `CN(C(=O)c1cccc(CN2Cc3cc(Oc4ccccc4C4CCCC4)ccc3N=C2N)c1)C1CCCCC1` [Compound 512], for which the “% Inhibition (FS)” value is less than 30% (0.3 μM test compound), less than 30% (1 μM test compound) and 51% (3 μM test compound).

On to `CN(C(=O)c1cccc(CN2Cc3cc(OCc4ccccc4-c4ccccc4)ccc3N=C2N)c1)C1CCCCC1` [Compound 513], for which the “% Inhibition (FS)” value runs as follows: (0.3 μM test compound) less than 30%; (1 μM test compound) less than 30%; (3 μM test compound) less than 30%.

As for `COc1cccc(COc2ccc3c(c2)CN(Cc2cccc(C(=O)N(C)C4CCCCC4)c2)C(N)=N3)c1` [Compound 514], the “% Inhibition (FS)” value reads like this: (0.3 μM test compound) less than 30%; (1 μM test compound) less than 30%; (3 μM test compound) less than 30%.

Regarding `CCCCCOc1ccc2c(c1)CN(Cc1cccc(C(=O)N(C)C3CCCCC3)c1)C(N)=N2` [Compound 516], the “% Inhibition (FS)” value (0.3 μM test compound) was less than 30%, the “% Inhibition (FS)” value (1 μM test compound) is listed as less than 30% and the “% Inhibition (FS)” value (3 μM test compound) was less than 30%.

With `CC(C)COc1ccc2c(c1)CN(Cc1cccc(C(=O)N(C)C3CCCCC3)c1)C(N)=N2` [Compound 518], the “% Inhibition (FS)” value (0.3 μM test compound) is recorded as less than 30%, the “% Inhibition (FS)” value (1 μM test compound) is given as less than 30% and the “% Inhibition (FS)” value (3 μM test compound) is reported as less than 30%.

In the case of `CC(C)Oc1ccc2c(c1)CN(Cc1cccc(C(=O)N(C)C3CCCCC3)c1)C(N)=N2` [Compound 519], the “% Inhibition (FS)” value runs as follows: (0.3 μM test compound) less than 30%; (1 μM test compound) less than 30%; (3 μM test compound) less than 30%.

With `CN(C(=O)c1cccc(CN2Cc3cc(OC4CCCC4)ccc3N=C2N)c1)C1CCCCC1` [Compound 520], the “% Inhibition (FS)” value reads like this: (0.3 μM test compound) less than 30%; (1 μM test compound) less than 30%; (3 μM test compound) 33%.

Turning to `CN(C(=O)c1cccc(CN2Cc3cc(OCC4CCCC4)ccc3N=C2N)c1)C1CCCCC1` [Compound 521], the “% Inhibition (FS)” value is listed as less than 30% (0.3 μM test compound), less than 30% (1 μM test compound) and less than 30% (3 μM test compound).

In the case of `CCCC(CCC)C(=O)N1CCC(N2Cc3cc(Oc4ccccc4)ccc3N=C2N)CC1` [Compound 523], the “% Inhibition (FS)” value reads like this: (0.3 μM test compound) less than 30%; (1 μM test compound) less than 30%; (3 μM test compound) 58%.

On to `NC1=Nc2ccc(Oc3ccccc3)cc2CN1C1CCN(C(=O)C23CC4CC(CC(C4)C2)C3)CC1` [Compound 524], for which the “% Inhibition (FS)” value is recorded as less than 30% (0.3 μM test compound), less than 30% (1 μM test compound) and 44% (3 μM test compound).

Turning to `NC1=Nc2ccc(Oc3ccccc3)cc2CN1CC1CCN(C(=O)C2CCCCC2)CC1` [Compound 525], the “% Inhibition (FS)” value was less than 30% (0.3 μM test compound), less than 30% (1 μM test compound) and 70% (3 μM test compound).

As for `CCCC(CCC)C(=O)N1CCC(CN2Cc3cc(Oc4ccccc4)ccc3N=C2N)CC1` [Compound 526], the “% Inhibition (FS)” value by setting is: (0.3 μM test compound) less than 30%; (1 μM test compound) 36%; (3 μM test compound) 98%.

On to `NC1=Nc2ccc(Oc3ccccc3)cc2CN1CC1CCN(C(=O)C23CC4CC(CC(C4)C2)C3)CC1` [Compound 527], for which the “% Inhibition (FS)” value (0.3 μM test compound) is given as less than 30%, the “% Inhibition (FS)” value (1 μM test compound) is less than 30% and the “% Inhibition (FS)” value (3 μM test compound) was 51%.

As to `CC(C)[C@@H](CNC(=O)C1CCCCC1)N1Cc2cc(Oc3ccccc3)ccc2N=C1N` [Compound 528], the “% Inhibition (FS)” value runs as follows: (0.3 μM test compound) less than 30%; (1 μM test compound) less than 30%; (3 μM test compound) 41%.

With `NC1=Nc2ccc(Oc3c(F)cccc3F)cc2CN1CCC(=O)NC1C2CC3CC(C2)CC1C3` (stereo not drawn) [Compound 529], the “% Inhibition (FS)” value reads like this: (0.3 μM test compound) less than 30%; (1 μM test compound) less than 30%; (3 μM test compound) 66%.

Regarding `CC1CCN(C(=O)CCCC(CCC(=O)N2CCC(C)CC2)N2Cc3cc(Oc4ccccc4)ccc3N=C2N)CC1` (stereo not drawn) [Compound 532], the “% Inhibition (FS)” value runs as follows: (0.3 μM test compound) less than 30%; (1 μM test compound) less than 30%; (3 μM test compound) 68%.

For `CS(=O)(=O)Nc1ccccc1-c1ccc2c(c1)CN(CCNC(=O)C1CCCCC1)C(N)=N2` [Compound 539], the “% Inhibition (FS)” value is, setting by setting: (0.3 μM test compound) less than 30%; (1 μM test compound) less than 30%; (3 μM test compound) less than 30%.

Turning to `CSc1ccccc1-c1ccc2c(c1)CN(CCNC(=O)C1CCCCC1)C(N)=N2` [Compound 540], the “% Inhibition (FS)” value reads like this: (0.3 μM test compound) less than 30%; (1 μM test compound) 30%; (3 μM test compound) 84%.

Regarding `CC(=O)Nc1ccccc1-c1ccc2c(c1)CN(CCNC(=O)C1CCCCC1)C(N)=N2` [Compound 541], the “% Inhibition (FS)” value is, setting by setting: (0.3 μM test compound) less than 30%; (1 μM test compound) less than 30%; (3 μM test compound) less than 30%.
